# Values quoted from earlier work as cited in PubChem BioAssay AID1259409 (Chemical Carcinogenesis Research Information System (CCRIS), 2018).
# Test system: rodent chemically induced tumor inhibition, incidence and multiplicity
# Assay: CCRIS tumor inhibitor studies
# Conditions: Dose [Inhibitor]: 0
smiles,measurement,setting,value
CC(C)=CCC/C(C)=C/CO,"tumour outcome (control, treated, inhibition, significance)","Carcinogen: 7,12-DIMETHYLBENZ[A]ANTHRACENE, 57-97-6, 36 MMOL/KG IN DIET FOR 24 WK BEGINNING 2 WK PRIOR TO CARCINOGEN DOSE (STUDY DURATION: 24 WK), Route [Inhibitor]: ORAL, Species: RAT, Strain/Sex: SPRAGUE-DAWLEY/FEMALE, Target Tissue: Type of Lesion: MAMMARY GLAND: TUMOR, Dose [Carcinogen]: 65 MG/KG BW ONCE, Promoter: NONE USED","91%, 81%, 11%, not significant"
COc1c2ccoc2cc2cc(C)oc(=O)c12,"tumour outcome (control, treated, inhibition, significance)","Carcinogen: 7,12-DIMETHYLBENZ[A]ANTHRACENE, 57-97-6, 400 NMOL ONCE APPLIED 5 MIN PRIOR TO CARCINOGEN DOSE (STUDY DURATION: 25 WK), Route [Inhibitor]: DERMAL, Species: MOUSE, Strain/Sex: SENCAR, Target Tissue: Type of Lesion: SKIN: PAPILLOMA, Dose [Carcinogen]: 10 NMOL ONCE, Promoter: 12-O-TETRADECANOYLPHORBOL-13-ACETATE, 16561-29-8","96%, 96%, 0%, not significant"
same,"tumour outcome (control, treated, inhibition, significance)","Carcinogen: BENZO[A]PYRENE, 50-32-8, 400 NMOL ONCE APPLIED 5 MIN PRIOR TO CARCINOGEN DOSE (STUDY DURATION: 25 WK), Route [Inhibitor]: DERMAL, Species: MOUSE, Strain/Sex: SENCAR, Target Tissue: Type of Lesion: SKIN: PAPILLOMA, Dose [Carcinogen]: 200 NMOL ONCE, Promoter: 12-O-TETRADECANOYLPHORBOL-13-ACETATE, 16561-29-8","91%, 91%, 0%, not significant"
O=C(/C=C/c1ccccc1)c1ccccc1O,"tumour outcome (control, treated, inhibition, significance)","Carcinogen: 4-NITROQUINOLINE-1-OXIDE, 56-57-5, 500 PPM IN DIET FOR 10 WK BEGINNING 1 WK PRIOR TO CARCINOGEN DOSE (STUDY DURATION: 32 WK), Route [Inhibitor]: ORAL, Species: RAT, Strain/Sex: F344/MALE, Target Tissue: Type of Lesion: TONGUE: CARCINOMA, Dose [Carcinogen]: 20 PPM IN DRINKING WATER FOR 8 WK, Promoter: NONE USED","9/15 (60%), 2/16 (13%), 78%, p<0.05"
same,"tumour outcome (control, treated, inhibition, significance)","Carcinogen: 4-NITROQUINOLINE-1-OXIDE, 56-57-5, 500 PPM IN DIET FOR 10 WK BEGINNING 1 WK PRIOR TO CARCINOGEN DOSE (STUDY DURATION: 32 WK), Route [Inhibitor]: ORAL, Species: RAT, Strain/Sex: F344/MALE, Target Tissue: Type of Lesion: TONGUE: PAPILLOMA, Dose [Carcinogen]: 20 PPM IN DRINKING WATER FOR 8 WK, Promoter: NONE USED","4/15 (27%), 1/16 (6%), 78%, not significant"
same,"tumour outcome (control, treated, inhibition, significance)","Carcinogen: 4-NITROQUINOLINE-1-OXIDE, 56-57-5, 500 PPM IN DIET FOR 22 WK BEGINNING 1 WK POST CARCINOGEN TREATMENT (STUDY DURATION: 32 WK), Route [Inhibitor]: ORAL, Species: RAT, Strain/Sex: F344/MALE, Target Tissue: Type of Lesion: TONGUE: CARCINOMA, Dose [Carcinogen]: 20 PPM IN DRINKING WATER FOR 8 WK, Promoter: NONE USED","9/15 (60%), 3/16 (19%), 68%, p<0.05"
same,"tumour outcome (control, treated, inhibition, significance)","Carcinogen: 4-NITROQUINOLINE-1-OXIDE, 56-57-5, 500 PPM IN DIET FOR 22 WK BEGINNING 1 WK POST CARCINOGEN TREATMENT (STUDY DURATION: 32 WK), Route [Inhibitor]: ORAL, Species: RAT, Strain/Sex: F344/MALE, Target Tissue: Type of Lesion: TONGUE: PAPILLOMA, Dose [Carcinogen]: 20 PPM IN DRINKING WATER FOR 8 WK, Promoter: NONE USED","4/15 (27%), 0/16 (0%), 100%, p<0.05"
S=C=Nc1cc2c3ccccc3ccc2c2ccccc12,outcome,"Carcinogen: BENZO[A]PYRENE, 50-32-8, 5 UMOL IN ACETONE 4 HR PRIOR TO CARCINOGEN DOSE (STUDY DURATION: 20 WK), Route [Inhibitor]: DERMAL, Species: MOUSE, Strain/Sex: STRAIN-A/FEMALE, Target Tissue: Type of Lesion: SKIN: TUMOR, Dose [Carcinogen]: 0.1 UMOL IN ACETONE ONCE, Promoter: 12-O-TETRADECANOYLPHORBOL-13-ACETATE, 16561-29-8","85%, 74%, 13%, not significant at 15 wk; 95%, 80%, 16%, not significant at 20 wk"
CCC(C)C(NC(=O)C(C)NC(=O)C(Cc1cnc[nH]1)NC(=O)C1CCCN1C(=O)CNC(=O)C(CC(C)C)NC(=O)C(CC(C)C)NC(=O)C(Cc1ccc(O)cc1)NC(=O)CNC(=O)C(C)NC(=O)C(CO)NC(=O)C(CC(N)=O)NC(=O)C(CC(C)C)NC(=O)C(NC(=O)C(Cc1c[nH]c2ccccc12)NC(=O)CN)C(C)O)C(=O)NC(CC(=O)O)C(=O)NC(CC(N)=O)C(=O)NC(Cc1c[nH]cn1)C(=O)NC(CCCNC(=N)N)C(=O)NC(CO)C(=O)NC(Cc1ccccc1)C(=O)NC(Cc1cnc[nH]1)C(=O)NC(CC(=O)O)C(=O)NC(CCCCN)C(=O)NC(Cc1ccc(O)cc1)C(=O)NCC(=O)NC(CC(C)C)C(=O)NC(C)C(N)=O (configuration not stated),"tumour outcome (control, treated, inhibition, significance)","Carcinogen: AZOXYMETHANE, 25843-45-2, 4 UG/KG BW IN OLIVE OIL 1/2 D FOR DURATION OF STUDY (STUDY DURATION: 45 WK), Route [Inhibitor]: SUBCUTANEOUS, Species: RAT, Strain/Sex: WISTAR/MALE, Target Tissue: Type of Lesion: COLON: ADENOMA OR ADENOCARCINOMA, Dose [Carcinogen]: 7.4 MG/KG BW IN 0.9% SALINE 1/WK FOR 10 WK, Promoter: NONE USED","15/19 (79%), 7/19 (37%), 53%, p<0.05"
same,"tumour outcome (control, treated, inhibition, significance)","Carcinogen: N-METHYL-N'-NITRO-N-NITROSOGUANIDINE, 70-25-7, 2 UG/KG BW IN OLIVE OIL 1/2 WK FOR 26 WK BEGINNING POST CARCINOGEN TREATMENT (STUDY DURATION: 52 WK), Route [Inhibitor]: SUBCUTANEOUS, Species: RAT, Strain/Sex: WISTAR/MALE, Target Tissue: Type of Lesion: STOMACH: ADENOCARCINOMA, Dose [Carcinogen]: 50 UG/ML IN DRINKING WATER FOR 25 WK, Promoter: NONE USED","10/20 (50%), 10/20 (50%), 0%, not significant"
same,"tumour outcome (control, treated, inhibition, significance)","Carcinogen: N-METHYL-N'-NITRO-N-NITROSOGUANIDINE, 70-25-7, 4 UG/KG BW IN OLIVE OIL 1/2 WK FOR 26 WK BEGINNING POST CARCINOGEN TREATMENT (STUDY DURATION: 52 WK), Route [Inhibitor]: SUBCUTANEOUS, Species: RAT, Strain/Sex: WISTAR/MALE, Target Tissue: Type of Lesion: STOMACH: ADENOCARCINOMA, Dose [Carcinogen]: 50 UG/ML IN DRINKING WATER FOR 25 WK, Promoter: NONE USED","10/20 (50%), 3/20 (15%), 70%, p<0.01"
CCCCCCCCCCCC,"tumour outcome (control, treated, inhibition, significance)","Carcinogen: 4-(METHYLNITROSAMINO)-1-(3-PYRIDYL)-1-BUTANONE, 64091-91-4, 1 UMOL IN 0.1 ML CORN OIL ONCE 2 HR PRIOR TO CARCINOGEN DOSE (STUDY DURATION: 16 WK), Route [Inhibitor]: GAVAGE, Species: MOUSE, Strain/Sex: STRAIN-A/FEMALE, Target Tissue: Type of Lesion: LUNG: ADENOMA, Dose [Carcinogen]: 10 UMOL IN 0.1 ML SALINE ONCE, Promoter: NONE USED","100%, 100%, 0%, not significant"
